Assay results taken from publication PMC11497361 (Current Research in Microbial Sciences, 2024).

Target: WNV NS5 WT
Assay: MTase-Glo luminescence methyltransferase assay
Format: biochemical, Orthoflavivirus nilense
Conditions: poly-A RNA acceptor, 20 µM SAM, pH 9, 30 °C, 25 min; MTase activity

SMILES	IC50
Nc1ncnc2c1ncn2[C@@H]1O[C@H](CNC(=O)C(c2ccccc2)(c2ccccc2)c2ccccc2)[C@@H](O)[C@H]1O [compound 1, 5´-(2,2,2-triphenylacetamide)-5´-deoxyadenosine]	21.6 ± 11.1 µM
Nc1ncnc2c1ncn2[C@@H]1O[C@H](C[C@@H](N)CC[C@H](N)C(=O)O)[C@@H](O)[C@H]1O [sinefungin]	3.6 ± 1.8 µM
